Measured values taken from patent publication US7008905B2, “Method of combating undesired plant growth on cereals” (BASF Aktiengesellschaft, priority 2000, dated 2006).

Key:
Type in all cases: in vivo
[1] = test system: Triticum aestivum variety “Monopol”; experiment: Post-emergence test, selectivity; settings: 2–4 weeks after treatment, rating 0-100 (100=death), Table 6
Experimental: (§1) These acetone solutions are diluted with water and the resulting formulations applied at dosage levels equivalent of about 0.030 to 0.240 kg per hectare of test compound per pot. After spraying the plants are placed an greenhouse benches and are cared for in the usual manner, commensurate with conventional greenhouse practices. From 2 to 4 weeks after treatment, the seedling plants are examined and rated according to the rating system provided above. A rating 0 indicates growth as untreated control, a rating 100 indicates death.

[2] = test system: Triticum aestivum variety “Kanzler”; experiment: Post-emergence test, selectivity; settings: 2–4 weeks after treatment, rating 0-100 (100=death), Table 6
Experimental: as §1

Polygonum convolvulus [3] = experiment: Post-emergence test, weed control; settings: 2–4 weeks after treatment, rating 0-100 (100=death), Table 5
Experimental: as §1

Matricaria inodora [4] = experiment: Post-emergence test, weed control; settings: 2–4 weeks after treatment, rating 0-100 (100=death), Table 5
Experimental: as §1

Veronica persica = experiment: Pre-emergence test, weed control; settings: 3 weeks after treatment, rating 0-100 (100=death), Table 1
Outline: (§2)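 Scores from 0 (growth like untreated control) to 100 (death) were assigned by eye three weeks post-spray, with 10 units approximating a 10% change in effect. Treatment was applied to freshly sown loam at 15 to 240 g active material per hectare.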

Poa annua = experiment: Pre-emergence test, weed control; settings: 3 weeks after treatment, rating 0-100 (100=death), Table 1
Outline: as §2

Apera spica-venti = experiment: Pre-emergence test, weed control; settings: 3 weeks after treatment, rating 0-100 (100=death), Table 1
Outline: as §2

Galium aparine = experiment: Pre-emergence test, weed control; settings: 3 weeks after treatment, rating 0-100 (100=death), Table 1
Outline: as §2

Lolium perenne = experiment: Pre-emergence test, weed control; settings: 3 weeks after treatment, rating 0-100 (100=death), Table 1
Outline: as §2

Alopecurus myosuroides = experiment: Pre-emergence test, weed control; settings: 3 weeks after treatment, rating 0-100 (100=death), Table 1
Outline: as §2

Polygonum convolvulus [5] = experiment: Pre-emergence test, weed control; settings: 3 weeks after treatment, rating 0-100 (100=death), Table 1
Outline: as §2

Stellaria media = experiment: Pre-emergence test, weed control; settings: 3 weeks after treatment, rating 0-100 (100=death), Table 1
Outline: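 Herbicidal effect was scored visually on a 0–100 scale (100 = death, 0 = untreated-like) three weeks after treatment. Soil was horticultural loam sprayed just after sowing with aqueous-diluted acetone/0.4% TRITON X-155 formulations at 15–240 g a.i./ha (900 L/ha).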

Matricaria inodora [6] = experiment: Pre-emergence test, weed control; settings: 3 weeks after treatment, rating 0-100 (100=death), Table 1
Outline: as §2

Lamium purpureum = experiment: Pre-emergence test, weed control; settings: 3 weeks after treatment, rating 0-100 (100=death), Table 1
Outline: as §2

Setaria viridis = experiment: Pre-emergence test, weed control; settings: 3 weeks after treatment, rating 0-100 (100=death), Table 1
Outline: as §2

[7] = test system: Triticum aestivum variety “Monopol”; experiment: Pre-emergence test, selectivity; settings: 3 weeks after treatment, rating 0-100 (100=death), Table 2
Outline: as §2

HORVW = experiment: Pre-emergence test, selectivity; settings: 3 weeks after treatment, rating 0-100 (100=death), Table 2
Outline: as §2

[8] = test system: Hordeum vulgare variety “Mammut”; experiment: Pre-emergence test, selectivity; settings: 3 weeks after treatment, rating 0-100 (100=death), Table 2
Outline: as §2

[9] = test system: Triticum aestivum variety “Kanzler”; experiment: Pre-emergence test, selectivity; settings: 3 weeks after treatment, rating 0-100 (100=death), Table 2
Outline: as §2

Structure (SMILES): FC(F)(F)c1ccc(-c2nccc(Oc3cccc(C(F)(F)F)c3)n2)cc1 [TTP, 4-(3-trifluoromethylphenoxy)-2-(4-trifluoromethyl-phenyl)-pyrimidine]
- TRZAWM rating (Selectivity) ([1]; 0.03 kg/ha): 1
- TRZAWM rating (Selectivity) ([1]; 0.06 kg/ha): 8
- TRZAWM rating (Selectivity) ([1]; 0.12 kg/ha): 8
- TRZAWM rating (Selectivity) ([1]; 0.24 kg/ha): 12
- TRZAWK rating (Selectivity) ([2]; 0.03 kg/ha): 2
- TRZAWK rating (Selectivity) ([2]; 0.06 kg/ha): 8
- TRZAWK rating (Selectivity) ([2]; 0.12 kg/ha): 8
- TRZAWK rating (Selectivity) ([2]; 0.24 kg/ha): 15
- POLCO weed control rating (Polygonum convolvulus [3]; 0.030 kg/ha): 10
- POLCO weed control rating (Polygonum convolvulus [3]; 0.060 kg/ha): 60
- POLCO weed control rating (Polygonum convolvulus [3]; 0.120 kg/ha): 35
- POLCO weed control rating (Polygonum convolvulus [3]; 0.240 kg/ha): 90
- MATIN weed control rating (Matricaria inodora [4]; 0.030 kg/ha): 50
- MATIN weed control rating (Matricaria inodora [4]; 0.060 kg/ha): 90
- MATIN weed control rating (Matricaria inodora [4]; 0.120 kg/ha): 75
- MATIN weed control rating (Matricaria inodora [4]; 0.240 kg/ha): 90
- VERPE weed control rating (Veronica persica; 0.015 kg/ha): 100
- VERPE weed control rating (Veronica persica; 0.030 kg/ha): 100
- VERPE weed control rating (Veronica persica; 0.060 kg/ha): 100
- VERPE weed control rating (Veronica persica; 0.120 kg/ha): 100
- VERPE weed control rating (Veronica persica; 0.240 kg/ha): 100
- POAAN weed control rating (Poa annua; 0.015 kg/ha): 100
- POAAN weed control rating (Poa annua; 0.030 kg/ha): 100
- POAAN weed control rating (Poa annua; 0.060 kg/ha): 100
- POAAN weed control rating (Poa annua; 0.120 kg/ha): 100
- POAAN weed control rating (Poa annua; 0.240 kg/ha): 100
- APESV weed control rating (Apera spica-venti; 0.015 kg/ha): 100
- APESV weed control rating (Apera spica-venti; 0.030 kg/ha): 100
- APESV weed control rating (Apera spica-venti; 0.060 kg/ha): 100
- APESV weed control rating (Apera spica-venti; 0.120 kg/ha): 100
- APESV weed control rating (Apera spica-venti; 0.240 kg/ha): 100
- GALAP weed control rating (Galium aparine; 0.015 kg/ha): 5
- GALAP weed control rating (Galium aparine; 0.030 kg/ha): 30
- GALAP weed control rating (Galium aparine; 0.060 kg/ha): 50
- GALAP weed control rating (Galium aparine; 0.120 kg/ha): 75
- GALAP weed control rating (Galium aparine; 0.240 kg/ha): 93
- LOLPE weed control rating (Lolium perenne; 0.015 kg/ha): 70
- LOLPE weed control rating (Lolium perenne; 0.030 kg/ha): 99
- LOLPE weed control rating (Lolium perenne; 0.060 kg/ha): 99
- LOLPE weed control rating (Lolium perenne; 0.120 kg/ha): 99
- LOLPE weed control rating (Lolium perenne; 0.240 kg/ha): 100
- ALOMY weed control rating (Alopecurus myosuroides; 0.015 kg/ha): 15
- ALOMY weed control rating (Alopecurus myosuroides; 0.030 kg/ha): 50
- ALOMY weed control rating (Alopecurus myosuroides; 0.060 kg/ha): 90
- ALOMY weed control rating (Alopecurus myosuroides; 0.120 kg/ha): 100
- ALOMY weed control rating (Alopecurus myosuroides; 0.240 kg/ha): 100
- POLCO weed control rating (Polygonum convolvulus [5]; 0.015 kg/ha): 80
- POLCO weed control rating (Polygonum convolvulus [5]; 0.030 kg/ha): 100
- POLCO weed control rating (Polygonum convolvulus [5]; 0.060 kg/ha): 100
- POLCO weed control rating (Polygonum convolvulus [5]; 0.120 kg/ha): 100
- POLCO weed control rating (Polygonum convolvulus [5]; 0.240 kg/ha): 100
- STEME weed control rating (Stellaria media; 0.015 kg/ha): 99
- STEME weed control rating (Stellaria media; 0.030 kg/ha): 99
- STEME weed control rating (Stellaria media; 0.060 kg/ha): 100
- STEME weed control rating (Stellaria media; 0.120 kg/ha): 100
- STEME weed control rating (Stellaria media; 0.240 kg/ha): 100
- MATIN weed control rating (Matricaria inodora [6]; 0.015 kg/ha): 98
- MATIN weed control rating (Matricaria inodora [6]; 0.030 kg/ha): 99
- MATIN weed control rating (Matricaria inodora [6]; 0.060 kg/ha): 100
- MATIN weed control rating (Matricaria inodora [6]; 0.120 kg/ha): 100
- MATIN weed control rating (Matricaria inodora [6]; 0.240 kg/ha): 100
- LAMPU weed control rating (Lamium purpureum; 0.015 kg/ha): 99
- LAMPU weed control rating (Lamium purpureum; 0.030 kg/ha): 100
- LAMPU weed control rating (Lamium purpureum; 0.060 kg/ha): 100
- LAMPU weed control rating (Lamium purpureum; 0.120 kg/ha): 100
- LAMPU weed control rating (Lamium purpureum; 0.240 kg/ha): 100
- SETVI weed control rating (Setaria viridis; 0.015 kg/ha): 100
- SETVI weed control rating (Setaria viridis; 0.030 kg/ha): 100
- SETVI weed control rating (Setaria viridis; 0.060 kg/ha): 100
- SETVI weed control rating (Setaria viridis; 0.120 kg/ha): 100
- SETVI weed control rating (Setaria viridis; 0.240 kg/ha): 100
- TRZAWM rating (Selectivity) ([7]; 0.060 kg/ha): 1
- TRZAWM rating (Selectivity) ([7]; 0.120 kg/ha): 5
- TRZAWM rating (Selectivity) ([7]; 0.240 kg/ha): 15
- HORVW rating (Selectivity) (HORVW; 0.015 kg/ha): 10
- HORVW rating (Selectivity) (HORVW; 0.030 kg/ha): 25
- HORVW rating (Selectivity) (HORVW; 0.060 kg/ha): 30
- HORVW rating (Selectivity) (HORVW; 0.120 kg/ha): 50
- HORVW rating (Selectivity) (HORVW; 0.240 kg/ha): 55
- HORVWM rating (Selectivity) ([8]; 0.015 kg/ha): 5
- HORVWM rating (Selectivity) ([8]; 0.030 kg/ha): 22
- HORVWM rating (Selectivity) ([8]; 0.060 kg/ha): 30
- HORVWM rating (Selectivity) ([8]; 0.120 kg/ha): 40
- HORVWM rating (Selectivity) ([8]; 0.240 kg/ha): 45
- TRZAWK rating (Selectivity) ([9]; 0.120 kg/ha): 3
- TRZAWK rating (Selectivity) ([9]; 0.240 kg/ha): 10
